Results on nine compounds are retold here after PMC7531004, “Discovery of gramicidin A analogues with altered activities by multidimensional screening of a one-bead-one-compound library” (Nature Communications, 2020).

Data set [1] concerns P388 mouse leukemia cells. The settings on record: 92 h. The source says: Each type of assay must be simplified and miniaturized to assess the activities of the library peptides in a 96-well format for the high-throughput screening. […]
Mammalian cytotoxicity assay of bead-derived peptides . P388 cells were obtained from Institute of
Development Aging and Cancer (Tohoku University). The cells were maintained with growth medium
[RPMI1640 with phenol red ( Fujifilm Wako Pure Chemical) supplemented with 10% heat -inactivated fetal
bovine serum, pe nicillin G (100 units/mL), and streptomycin (100 µg/mL)] under atmosphere of 5% CO 2 at
The collected cells were resuspended into
the growth medium at 2 × 10^4 cells/mL. The stock solutions of the peptide library were 250-fold diluted
with the growth medium. Aliquots of the medium (100 µL) containing peptides and the latter medium
containing P388 cells (100 µL) were mixed in a 96-well cell culture plate (TR5003, TrueLine). The final
concentration of P388 cells was 1 × 10^4 cells/mL. After incubation under atmosphere of 5% CO2 at 37 °C
for 92 h, the numbers of viable cells were determined by
2-(4-iodophenyl)-3-(4-nitrophenyl)-5-(2,4-disulfophenyl)-2H-tetrazolium, monosodium salt (WST-1) assay.
A solution of 1-methoxy-5-methylphenazinium methyl sulfate (1-methoxy PMS) and WST-1 in the growth
medium (1-methoxy PMS 0.70 mg/mL in Milli-Q/WST-1 3.6 mg/mL in pH 7.4 HEPES buffer = 1/9) was
added to each well of the plate (10.0 µL/well). The plate was incubated for 4 h under atmosphere of 5% CO2
at 37 °C. The absorbance of each well at 415 nm was measured using a Benchmark microplate reader
(Bio-Rad). The cytotoxicities were evaluated as cell viability (%). […]

Data set [2] can be described thus: H+/Na+ transport assay of bead-derived peptides (one-point).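 Note: relative to parent gramicidin A activity set to 1.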 It is filed as biochemical. On the set-up: key: relative activity; mean of two control wells = 1.00. Conditions: bead-derived peptide solution, EYPC/EYPG LUVs. The procedure:
(§1) Each type of assay must be simplified and miniaturized to assess the activities of the library peptides in a 96-well format for the high-throughput screening.
H+/Na+ transport assay of bead-derived peptides.1,2,3 Trisodium 8-hydroxypyrene-1,3,6-trisulfonate
mini-extruder apparatus (Avanti Polar Lipids).
28.9 µmol) in CHCl3 (225 µL) and egg yolk phosphatidylglycerol (1.20 mg, 1.56 µmol) in CHCl3 (60.0 µL)
The thin film was hydrated and
1.0 mM pyranine) by sonication.
A suspension of the LUVs was immediately
used for the H+/Na+ transport assay.
The diluted solution of peptide
flat-bottom 96-well plate (655086, Greiner bio-one).
was vortexed at room temperature for 30 min.
(5/95, 3.0 µL) and the LUV suspension were mixed in each plate to determine 100% lysis. The untreated
LUV suspension was used to determine 0% lysis.
normalized against 100% lysis by Triton X-100 (Imax) and 0% lysis (I0) as following, where Ix is the
fluorescence intensity (Supplementary Equation 2).
I = 100 × (Ix – I0) / (Imax – I0) (2)
The mean value of the two control wells was set to 1.00. […]

Data set [3] relates to Streptococcus pyogenes SSI-9. As to the kind of experiment: Antibacterial activity assay of bead-derived peptides (three concentrations). It is filed as cell-based. Conditions: S. pyogenes, bead-derived peptide solution, three concentrations. On the set-up: key: +++: inhibition by the 640-fold diluted peptide solution; ++: inhibition by the 160-fold diluted solution; +: inhibition by the 40-fold diluted solution; -: no inhibition. The procedure:
as §1
Next, the peptides in groups A and B were subjected to the antibacterial assay and structural determination. Three peptide concentrations were applied to evaluate the growth inhibition of S. pyogenes and determine the antibacterial activity. […] Finally, the structures of the peptides were determined. […]
Antibacterial activity assay of bead-derived peptides. The stock solution of the peptide library was 4- and […]
16-fold diluted with DMSO. The non-diluted stock solution, 4-fold diluted solution, and 16-fold diluted […]
solution were transferred to the 96-well round-bottom plate (3367, Corning, 1.0 µL/well). To the solution of […]
peptide in each well was added a suspension of Streptococcus pyogenes SSI-9 strain in cation adjusted […]
Mueller Hinton Broth [40.0 µL, 2 × 10^5 colony forming units (CFU), 21 g/L Mueller Hinton Broth (Difco), 50 […]
mg/L Ca2+ (adjusted with CaCl2•2H2O), and 25 mg/L Mg2+ (adjusted with MgCl2•6H2O)] supplemented with […]
5% laked horse blood (Nippon Biotest Laboratories). The plate was incubated at 37 °C for 18 h, and the precipitation of the grown cells was examined. […]

The structures appear in SMILES notation. Where a SMILES comes first, the peptide text is derived from it. [ ]: non-standard residue; d: D form. The star is where a group is joined. NHCH2CH2OH = OCCN*; For = O=C*

Turning to `CC(C)C[C@@H](NC(=O)[C@H](C)NC(=O)CNC(=O)[C@@H](NC=O)C(C)C)C(=O)N[C@@H](C)C(=O)N[C@H](CC(C)C)C(=O)N[C@H](C(=O)N[C@@H](C(=O)N[C@@H](Cc1c[nH]c2ccccc12)C(=O)N[C@@H](C(=O)N[C@@H](Cc1c[nH]c2ccccc12)C(=O)N[C@@H](C(=O)N[C@@H](Cc1c[nH]c2ccccc12)C(=O)N[C@@H](C(=O)N[C@@H](Cc1c[nH]c2ccccc12)C(=O)NCCO)C(C)C)C(C)C)C(C)C)C(C)C)C(C)C` [compound 13128] (For-VGA[dL]A[dL]V[dV]W[dV]W[dV]W[dV]W-NHCH2CH2OH), the cell viability/% in data set [1] is 100.0%. In addition, in data set [2], the “H+/Na+ transport activity normalized against the value of 1 (1.00)” value (shortened to “H+/Na+ transport activity normalized”) is recorded as 1.24. Moreover, the antibacterial activity result in data set [3] is on record as “+”.
The like results for `CC(C)C[C@@H](NC(=O)[C@H](C)NC(=O)CNC(=O)[C@@H](NC=O)C(C)C)C(=O)N[C@@H](C)C(=O)N[C@@H](C(=O)N[C@H](C(=O)N[C@H](CC(C)C)C(=O)N[C@@H](Cc1c[nH]c2ccccc12)C(=O)N[C@H](CC(C)C)C(=O)N[C@@H](Cc1c[nH]c2ccccc12)C(=O)N[C@H](CC(C)C)C(=O)N[C@@H](Cc1c[nH]c2ccccc12)C(=O)N[C@@H](C(=O)N[C@@H](Cc1c[nH]c2ccccc12)C(=O)NCCO)C(C)C)C(C)C)[C@H](C)O` [compound 11302] (For-VGA[dL]A[dT]V[dL]W[dL]W[dL]W[dV]W-NHCH2CH2OH) were, in that order, 49.1%, 1.05 and “-”.
The like results for `CC(C)C[C@@H](NC(=O)[C@H](C)NC(=O)CNC(=O)[C@@H](NC=O)C(C)C)C(=O)N[C@@H](C)C(=O)N[C@@H](C(=O)N[C@H](C(=O)N[C@@H](C(=O)N[C@@H](Cc1c[nH]c2ccccc12)C(=O)N[C@@H](C(=O)N[C@@H](Cc1c[nH]c2ccccc12)C(=O)N[C@H](CC(C)C)C(=O)N[C@@H](Cc1c[nH]c2ccccc12)C(=O)N[C@H](CC(C)C)C(=O)N[C@@H](Cc1c[nH]c2ccccc12)C(=O)NCCO)C(C)C)C(C)C)C(C)C)C(C)C` [compound 3124] (For-VGA[dL]A[dV]V[dV]W[dV]W[dL]W[dL]W-NHCH2CH2OH) were, in that order, 0.0%, 1.26 and “++”.
On to `CC(C)C[C@@H](NC(=O)[C@H](C)NC(=O)[C@H](NC(=O)[C@H](C)NC(=O)CNC(=O)[C@@H](NC=O)C(C)C)C(C)C)C(=O)N[C@H](C(=O)N[C@@H](C(=O)N[C@@H](Cc1c[nH]c2ccccc12)C(=O)N[C@@H](C(=O)N[C@@H](Cc1c[nH]c2ccccc12)C(=O)N[C@H](CC(C)C)C(=O)N[C@@H](Cc1c[nH]c2ccccc12)C(=O)N[C@H](CC(C)C)C(=O)N[C@@H](Cc1c[nH]c2ccccc12)C(=O)NCCO)C(C)C)C(C)C)C(C)C` [compound 5463] (For-VGA[dV]A[dL]V[dV]W[dV]W[dL]W[dL]W-NHCH2CH2OH), for which, in data set [1], the cell viability/% is reported as 100.0%. For the same compound, the “H+/Na+ transport activity normalized” value in data set [2] was determined as 1.11. The antibacterial activity entry in data set [3] is given as “++”.
The like results for `CC(C)C[C@@H](NC(=O)[C@H](C)NC(=O)[C@H](NC(=O)[C@H](C)NC(=O)CNC(=O)[C@@H](NC=O)C(C)C)C(C)C)C(=O)N[C@H](C(=O)N[C@@H](C(=O)N[C@@H](Cc1c[nH]c2ccccc12)C(=O)N[C@H](CC(C)C)C(=O)N[C@@H](Cc1c[nH]c2ccccc12)C(=O)N[C@H](CC(C)C)C(=O)N[C@@H](Cc1c[nH]c2ccccc12)C(=O)N[C@@H](C(=O)N[C@@H](Cc1c[nH]c2ccccc12)C(=O)NCCO)C(C)C)C(C)C)C(C)C` [compound 12789] (For-VGA[dV]A[dL]V[dV]W[dL]W[dL]W[dV]W-NHCH2CH2OH) were, in that order, 9.6%, 1.04 and “-”.
Take `CNC(=O)C[C@@H](NC(=O)[C@@H](NC(=O)[C@H](NC(=O)[C@H](C)NC(=O)[C@@H](CC(C)C)NC(=O)[C@H](C)NC(=O)CNC(=O)[C@@H](NC=O)C(C)C)C(C)C)C(C)C)C(=O)N[C@@H](Cc1c[nH]c2ccccc12)C(=O)N[C@H](CC(C)C)C(=O)N[C@@H](Cc1c[nH]c2ccccc12)C(=O)N[C@@H](C(=O)N[C@@H](Cc1c[nH]c2ccccc12)C(=O)N[C@@H](C(=O)N[C@@H](Cc1c[nH]c2ccccc12)C(=O)NCCO)C(C)C)C(C)C` [compound 2932] (For-VGA[dL]A[dV]V[dD](NHMe)W[dL]W[dV]W[dV]W-NHCH2CH2OH): the cell viability/% in data set [1] amounted to 87.5%. Further, the “H+/Na+ transport activity normalized” value in data set [2] stood at 1.27. In addition, the antibacterial activity entry in data set [3] is given as “-”.
Consider `CC(C)C[C@@H](NC(=O)[C@H](Cc1c[nH]c2ccccc12)NC(=O)[C@H](NC(=O)[C@H](Cc1c[nH]c2ccccc12)NC(=O)[C@@H](CC(C)C)NC(=O)[C@H](Cc1c[nH]c2ccccc12)NC(=O)[C@@H](CC(C)C)NC(=O)[C@@H](NC(=O)[C@H](NC(=O)[C@H](C)NC(=O)[C@H](NC(=O)[C@H](C)NC(=O)CNC(=O)[C@@H](NC=O)C(C)C)C(C)C)C(C)C)C(C)C)[C@H](C)O)C(=O)N[C@@H](Cc1c[nH]c2ccccc12)C(=O)NCCO` [compound 1251] (For-VGA[dV]A[dV]V[dL]W[dL]W[dT]W[dL]W-NHCH2CH2OH), for which the cell viability/% in data set [1] turned out to be 52.9%. Moreover, in data set [2], the “H+/Na+ transport activity normalized” value worked out at 1.00. For the same compound, the antibacterial activity result in data set [3] is reported as “+”.
The like results for `CNC(=O)C[C@@H](NC(=O)[C@@H](NC(=O)[C@H](NC(=O)[C@H](C)NC(=O)[C@H](NC(=O)[C@H](C)NC(=O)CNC(=O)[C@@H](NC=O)C(C)C)C(C)C)C(C)C)C(C)C)C(=O)N[C@@H](Cc1c[nH]c2ccccc12)C(=O)N[C@H](CC(C)C)C(=O)N[C@@H](Cc1c[nH]c2ccccc12)C(=O)N[C@@H](C(=O)N[C@@H](Cc1c[nH]c2ccccc12)C(=O)N[C@@H](C(=O)N[C@@H](Cc1c[nH]c2ccccc12)C(=O)NCCO)C(C)C)C(C)C` [compound 8057] (For-VGA[dV]A[dV]V[dD](NHMe)W[dL]W[dV]W[dV]W-NHCH2CH2OH) were, in that order, 100.0%, 1.13 and “-”.
On to `CNC(=O)C[C@@H](NC(=O)[C@@H](NC(=O)[C@@H](CC(C)C)NC(=O)[C@H](C)NC(=O)[C@@H](CC(C)C)NC(=O)[C@H](C)NC(=O)CNC(=O)[C@@H](NC=O)C(C)C)C(C)C)C(=O)N[C@@H](Cc1c[nH]c2ccccc12)C(=O)N[C@@H](C(=O)N[C@@H](Cc1c[nH]c2ccccc12)C(=O)N[C@H](CC(C)C)C(=O)N[C@@H](Cc1c[nH]c2ccccc12)C(=O)N[C@H](CC(C)C)C(=O)N[C@@H](Cc1c[nH]c2ccccc12)C(=O)NCCO)C(C)C` [compound 6703] (For-VGA[dL]A[dL]V[dD](NHMe)W[dV]W[dL]W[dL]W-NHCH2CH2OH), for which the cell viability/% in data set [1] turned out to be 100.0%. In data set [2], the “H+/Na+ transport activity normalized” value was 1.17. For the same compound, the antibacterial activity entry in data set [3] is recorded as “-”.
